These results are taken from patent publication US20250353891A1 (MEDIMMUNE LIMITED, priority 2022, published 2025).

For assay [1], the target named is human GLP-1 receptor (hGLP-1R) (Homo sapiens, UniProt P43220). The experiment in a line: cAMP production (HTRF) in CHO cells expressing hGLP-1R. Type of assay: cell-based. Further details: expressed in transfected cells. To be noted: for EC50: Table 6, peptides modified at position 17, cAMP in CHO hGLP-1R cells, geometric mean, read-out: hGLP-1R EC50; for % Relative Potency Ratio: Table 6, % GLP-1R activity relative to GLP-1 / % GlucR activity relative to glucagon. A digest of the protocol: (§1)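 Potency values represent EC50 from 4-parameter logistic curves of HTRF % Delta F signal. Receptor-expressing CHO cells (hGCGR 2×10^5 cells/mL, hGLP-1R 1×10^5 cells/mL) were exposed for 30 min at room temperature before two-step cAMP detection.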

Assay [2] concerns the target human glucagon receptor (hGCGR) (Homo sapiens, UniProt P47871). The experiment in a line: cAMP production (HTRF) in CHO cells expressing hGCGR. Further details: expressed in transfected cells. The settings on record: Table 6, peptides modified at position 17; cAMP in CHO hGCGR cells; geometric mean; read-out: hGluc-R EC50. Type of assay: cell-based. In outline: as §1

Starred links: 1 amine or outer side, 2 acyl side, 3 side chain; linkers in the order of their positions; H or OH if unused. Non-standard residues stand in square brackets, D forms with d. Residues, ends and D or L forms follow the SMILES beside them. Groups on a side chain read outwards from the residue. *: point of attachment. C20 diacid = O=C(O)CCCCCCCCCCCCCCCCCCC(=O)*; C18 diacid = O=C(O)CCCCCCCCCCCCCCCCC(=O)*; γGlu = O=C(O)[C@H](CCC(=O)[*:2])N[*:1]; αMeF = C[C@](N)(Cc1ccccc1)C(=O)O; AEEA = NCCOCCOCC(=O)O; Aib = CC(C)(N)C(=O)O

Chain of human GLP-1 receptor (hGLP-1R) (P43220 24-463): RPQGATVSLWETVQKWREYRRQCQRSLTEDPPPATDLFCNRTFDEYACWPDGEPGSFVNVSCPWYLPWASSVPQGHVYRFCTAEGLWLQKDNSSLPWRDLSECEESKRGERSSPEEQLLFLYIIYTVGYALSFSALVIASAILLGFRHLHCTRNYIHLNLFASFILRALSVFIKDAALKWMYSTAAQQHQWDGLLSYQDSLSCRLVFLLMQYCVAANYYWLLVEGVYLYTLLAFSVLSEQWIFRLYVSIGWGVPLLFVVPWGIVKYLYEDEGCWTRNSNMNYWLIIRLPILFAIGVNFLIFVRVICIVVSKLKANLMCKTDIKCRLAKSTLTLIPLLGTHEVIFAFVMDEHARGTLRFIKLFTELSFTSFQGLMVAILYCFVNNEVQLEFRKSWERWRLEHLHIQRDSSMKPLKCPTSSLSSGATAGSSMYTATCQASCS
Chain of human glucagon receptor (hGCGR) (P47871 26-477): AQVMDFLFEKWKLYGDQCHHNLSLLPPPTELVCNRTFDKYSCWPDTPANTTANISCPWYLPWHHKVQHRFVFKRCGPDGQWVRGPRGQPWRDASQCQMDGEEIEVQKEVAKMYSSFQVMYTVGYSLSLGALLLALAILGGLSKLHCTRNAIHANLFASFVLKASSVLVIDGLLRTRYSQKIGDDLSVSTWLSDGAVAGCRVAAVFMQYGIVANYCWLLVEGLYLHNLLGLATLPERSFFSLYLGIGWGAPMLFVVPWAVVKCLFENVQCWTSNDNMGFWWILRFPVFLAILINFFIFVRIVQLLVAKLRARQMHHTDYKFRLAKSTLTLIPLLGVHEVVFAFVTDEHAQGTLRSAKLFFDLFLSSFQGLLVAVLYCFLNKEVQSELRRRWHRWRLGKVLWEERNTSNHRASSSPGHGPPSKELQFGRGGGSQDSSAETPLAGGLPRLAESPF

Broadly, the EC50 is the concentration needed to bring the measured effect to its halfway point. `CC(C)C[C@H](NC(=O)[C@H](Cc1c[nH]c2ccccc12)NC(=O)[C@H](CCC(N)=O)NC(=O)[C@@H](NC(=O)[C@H](Cc1ccccc1)NC(=O)[C@H](CC(=O)O)NC(=O)[C@H](CCC(N)=O)NC(=O)[C@H](C)NC(=O)[C@H](CCCNC(=N)N)NC(=O)[C@H](CCCCNC(=O)COCCOCCNC(=O)COCCOCCNC(=O)CC[C@H](NC(=O)CC[C@H](NC(=O)CCCCCCCCCCCCCCCCCCC(=O)O)C(=O)O)C(=O)O)NC(=O)[C@@H](NC(=O)[C@H](CC(=O)O)NC(=O)[C@H](CC(C)C)NC(=O)[C@](C)(Cc1ccccc1)NC(=O)[C@H](CCCCN)NC(=O)[C@H](CO)NC(=O)[C@@H](NC(=O)[C@H](CC(=O)O)NC(=O)[C@H](CO)NC(=O)[C@@H](NC(=O)[C@H](Cc1ccccc1)NC(=O)[C@@H](NC(=O)CNC(=O)[C@H](CCC(N)=O)NC(=O)C(C)(C)NC(=O)[C@@H](N)Cc1c[nH]cn1)[C@@H](C)O)[C@@H](C)O)C(C)C)[C@@H](C)O)C(C)C)C(=O)N[C@@H](CC(C)C)C(=O)N[C@@H](CCC(=O)O)C(=O)NC(C)(C)C(=O)NCC(N)=O` [Peptide 469] (H-H[Aib]QGTFTSDVSK[αMeF]LDTK([AEEA-AEEA-γGlu-γGlu-C20 diacid])RAQDFVQWLLE[Aib]G-NH2): in assay [1], the EC50 amounted to 0.255 nM and the “% Relative Potency Ratio” value turned out to be 4.2. The concentration giving a half-maximal response (EC50) in assay [2] was found to be 0.538 nM.

Regarding `CC(C)C[C@H](NC(=O)[C@H](Cc1c[nH]c2ccccc12)NC(=O)[C@H](CCC(N)=O)NC(=O)[C@@H](NC(=O)[C@H](Cc1ccccc1)NC(=O)[C@H](CC(=O)O)NC(=O)[C@H](CCCNC(=N)N)NC(=O)[C@H](C)NC(=O)[C@H](CCCNC(=N)N)NC(=O)[C@H](CCCCNC(=O)COCCOCCNC(=O)COCCOCCNC(=O)CC[C@H](NC(=O)CCCCCCCCCCCCCCCCCCC(=O)O)C(=O)O)NC(=O)[C@H](CCCCN)NC(=O)[C@H](CC(=O)O)NC(=O)[C@H](CC(C)C)NC(=O)[C@](C)(Cc1ccccc1)NC(=O)[C@H](CCCCN)NC(=O)[C@H](CO)NC(=O)[C@@H](NC(=O)[C@H](CC(=O)O)NC(=O)[C@H](CO)NC(=O)[C@@H](NC(=O)[C@H](Cc1ccccc1)NC(=O)[C@@H](NC(=O)CNC(=O)[C@H](CCC(N)=O)NC(=O)C(C)(C)NC(=O)[C@@H](N)Cc1c[nH]cn1)[C@@H](C)O)[C@@H](C)O)C(C)C)C(C)C)C(=O)N[C@@H](CC(C)C)C(=O)NC(C)(C)C(=O)N[C@@H](CCC(=O)O)C(N)=O` [Peptide 470] (H-H[Aib]QGTFTSDVSK[αMeF]LDKK([AEEA-AEEA-γGlu-C20 diacid])RARDFVQWLL[Aib]E-NH2; N-terminus assumed), in assay [1], the 50% effective concentration (EC50) came out at 0.0559 nM and the “% Relative Potency Ratio” value came to 1.1. The concentration for a half-maximal effect (EC50) in assay [2] was determined as 0.0303 nM.

Regarding `CC(C)C[C@H](NC(=O)[C@H](Cc1c[nH]c2ccccc12)NC(=O)[C@H](CCC(N)=O)NC(=O)[C@@H](NC(=O)[C@H](Cc1ccccc1)NC(=O)[C@H](CC(=O)O)NC(=O)[C@H](CCCNC(=N)N)NC(=O)[C@H](C)NC(=O)[C@H](CCCNC(=N)N)NC(=O)[C@H](CCCCNC(=O)COCCOCCNC(=O)COCCOCCNC(=O)CC[C@H](NC(=O)CCCCCCCCCCCCCCCCCCC(=O)O)C(=O)O)NC(=O)[C@H](CCCNC(=N)N)NC(=O)[C@H](CC(=O)O)NC(=O)[C@H](CC(C)C)NC(=O)[C@](C)(Cc1ccccc1)NC(=O)[C@H](CCCCN)NC(=O)[C@H](CO)NC(=O)[C@@H](NC(=O)[C@H](CC(=O)O)NC(=O)[C@H](CO)NC(=O)[C@@H](NC(=O)[C@H](Cc1ccccc1)NC(=O)[C@@H](NC(=O)CNC(=O)[C@H](CCC(N)=O)NC(=O)C(C)(C)NC(=O)[C@@H](N)Cc1c[nH]cn1)[C@@H](C)O)[C@@H](C)O)C(C)C)C(C)C)C(=O)N[C@@H](CC(C)C)C(=O)NC(C)(C)C(=O)N[C@@H](CCC(=O)O)C(N)=O` [Peptide 471], in assay [1], the EC50 turned out to be 0.102 nM and the “% Relative Potency Ratio” value is on record as 1.2. In assay [2], the concentration for a half-maximal effect (EC50) amounted to 0.0636 nM.

`CC(C)C[C@H](NC(=O)[C@H](Cc1c[nH]c2ccccc12)NC(=O)[C@H](CCC(N)=O)NC(=O)[C@@H](NC(=O)[C@H](Cc1ccccc1)NC(=O)[C@H](CC(=O)O)NC(=O)[C@H](CCCNC(=N)N)NC(=O)[C@H](C)NC(=O)[C@H](CCCNC(=N)N)NC(=O)[C@H](CCCCNC(=O)COCCOCCNC(=O)COCCOCCNC(=O)CC[C@H](NC(=O)CCCCCCCCCCCCCCCCC(=O)O)C(=O)O)NC(=O)[C@H](CCCNC(=N)N)NC(=O)[C@H](CC(=O)O)NC(=O)[C@H](CC(C)C)NC(=O)[C@](C)(Cc1ccccc1)NC(=O)[C@H](CCCCN)NC(=O)[C@H](CO)NC(=O)[C@@H](NC(=O)[C@H](CC(=O)O)NC(=O)[C@H](CO)NC(=O)[C@@H](NC(=O)[C@H](Cc1ccccc1)NC(=O)[C@@H](NC(=O)CNC(=O)[C@H](CCC(N)=O)NC(=O)C(C)(C)NC(=O)[C@@H](N)Cc1c[nH]cn1)[C@@H](C)O)[C@@H](C)O)C(C)C)C(C)C)C(=O)N[C@@H](CC(C)C)C(=O)NC(C)(C)C(=O)N[C@@H](CCC(=O)O)C(N)=O` [Peptide 473] (H-H[Aib]QGTFTSDVSK[αMeF]LDRK([AEEA-AEEA-γGlu-C18 diacid])RARDFVQWLL[Aib]E-NH2; N-terminus assumed): in assay [1], the concentration giving a half-maximal response (EC50) was determined as 0.0115 nM and the “% Relative Potency Ratio” value came out at 2.4. Further, the EC50 in assay [2] turned out to be 0.0141 nM.

As to `CC(C)C[C@H](NC(=O)[C@H](CC(C)C)NC(=O)[C@H](Cc1c[nH]c2ccccc12)NC(=O)[C@H](CCC(N)=O)NC(=O)[C@@H](NC(=O)[C@H](Cc1ccccc1)NC(=O)[C@H](CC(=O)O)NC(=O)[C@H](CCCNC(=N)N)NC(=O)[C@H](C)NC(=O)[C@H](CCCNC(=N)N)NC(=O)[C@H](CCCCNC(=O)COCCOCCNC(=O)COCCOCCNC(=O)CC[C@H](NC(=O)CCCCCCCCCCCCCCCCC(=O)O)C(=O)O)NC(=O)[C@@H](NC(=O)[C@H](CC(=O)O)NC(=O)[C@H](CC(C)C)NC(=O)[C@](C)(Cc1ccccc1)NC(=O)[C@H](CCCCN)NC(=O)[C@H](CO)NC(=O)[C@@H](NC(=O)[C@H](CC(=O)O)NC(=O)[C@H](CO)NC(=O)[C@@H](NC(=O)[C@H](Cc1ccccc1)NC(=O)[C@@H](NC(=O)CNC(=O)[C@H](CCC(N)=O)NC(=O)C(C)(C)NC(=O)[C@@H](N)Cc1c[nH]cn1)[C@@H](C)O)[C@@H](C)O)C(C)C)[C@@H](C)O)C(C)C)C(=O)N[C@@H](C)C(=O)NC(C)(C)C(=O)NCC(N)=O` [Peptide 474] (H-H[Aib]QGTFTSDVSK[αMeF]LDTK([AEEA-AEEA-γGlu-C18 diacid])RARDFVQWLLA[Aib]G-NH2; N-terminus assumed), in assay [1], the concentration for a half-maximal effect (EC50) came out at 0.00804 nM and the “% Relative Potency Ratio” value is reported as 14.0. Further, the EC50 in assay [2] came to 0.0569 nM.
